Data set [1] can be described thus: Dye-lipid binding by fluorescence lipid titration. Particulars: for average binding constant K to lipid membrane: POPC vesicles, Tris-NaCl buffer pH 8.1, 25° C., dye 0.5 μM; for binding constant to lipid membranes: fluorescence lipid titration, Example 2. The class given is physicochemical. As for the experimental part: Dye-lipid binding. The binding of the dyes to lipid membranes was determined by fluorescence lipid titration^21 with large unilamellar vesicles (LUVs) made of 1-palmitoyl-2-oleoyl-phosphatidylcholine (POPC). The purity of the lipids was checked by 2-dimensional TLC^22. The vesicles were made by extrusion^23 in Tris-NaCl buffer (20 mM Tris, 100 mM NaCl, pH 8.1), using an extrusion apparatus and polycarbonate filters with 100 nm pore size (both Avestin Europe, Mannheim, Germany). Vesicle size was determined by quasielastic light scattering using an argon ion laser (Spectra-Physics, Darmstadt, Germany), a photomultiplier (Brookhaven Instruments, Vienna, Austria) and a correlator (ALV-5000, Langen, Germany). The lipid concentration was determined by a chromogenic enzyme assay (Biomerieux, Marcy I'Etoile, France). The standard deviation of three concentration measurements for every vesicle preparation was always below 4%. Vesicles were stored under argon at 4° C. in 15 ml Falcon Centrifuge Tubes (BD Labware Europe, Le Pont de Claix, France) and used within three days.
To measure dye binding constants, we prepared 1 mM solutions of the dyes 1-3 by ultrasonication in Ethanol (1) or Tris-NaCl buffer (2,3). […] In the same buffer, suspensions of POPC vesicles with concentrations ranging from 100 nM to 10 mM were prepared by dilution of stock solutions. Dye and lipid were pre-thermostatted to 25° C. […] The fluorescence emission recorded at 600 nm with excitation at 488 nm was used for the evaluation of the partition coefficients.
Dye binding to lipid. When styryl hemicyanines bind to lipid bilayers, their quantum yield of fluorescence is enhanced. […] We take advantage of that effect to examine the binding of Di-4-ASPP phosphate and Di-4-ASPP alcohol to lipid membranes by fluorescence titration^21. For comparison Di-4-ASPBS was also included in the investigation.
Dispersions of large lipid vesicles (Ø≈100 nm) were made from palmitoyl-oleoyl-phosphatidylcholine (POPC) with lipid concentrations ranging over five orders of magnitude. […] The fluorescence intensity was enhanced with increasing concentration of lipid for all three dyes. The enhancement was shifted to higher lipid concentrations in the order Di-4-ASPP alcohol, Di-4-ASPBS and Di-4-ASPP phosphate.
Binding. The dyes Di-10-phosphato-ASPBS (Di-10P-ASPBS) and Di-12-phosphato-ASPBS (Di-12P-ASPBS) as well as the corresponding products after enzymatic hydrolysis Di-10-hydroxy-ASPBS (Di-10A-ASPBS) and Di-12-hydroxy-ASPBS (Di-12A-ASPBS) were synthesized by organic chemical methods. Their binding to lipid membranes was tested by fluorescence lipid titration (cf. page 15, section dye binding to lipid). The binding constants amounted to 27 M^−1 (Di-10P-ASPBS), 250,000 M^−1 (Di-10A-ASPBS), 2100 M^−1 (Di-12P-ASPBS) and 3,000,000 M^−1 (Di-12P-ASPBS) (FIGS. 14 and 15 (center and right hand side)). The difference in binding constants between dye alcohol and dye phosphates (or dye precursors) therefore amounted to a factor of 10,000 for the pair Di-10P-ASPBS/Di-10A-ASPBS and to a factor of 1000 for the pair Di-12P-ASPBS/Di-12A-ASPBS. The binding curve for the more lipophilic pair Di-12P-ASPBS/Di-12A-ASPBS is shifted to […] lipid concentrations.

For data set [2] the following is noted: upon transfer from water to lecithin membranes; cited from earlier work.
For data set [3], the system named is HEK 293 cells. Description: Staining of HEK 293 cells by activation of binding through soluble phosphatase. The class given is cell-based. Here is the method:
FIG. 12A to F: Staining of HEK 293 cells with a voltage sensitive dye by activation of binding through soluble phosphatase added to the incubation medium. HEK 293 cells (A, brightfield image) were incubated with the voltage sensitive fluorescent dye Di-8-phosphato-ASPBS (cf. FIG. 11, bottom) at a concentration of 19.6 μM. […] The images shown are optimized for contrast and intensity.

In data set [4] the test system is HEK 293 cells expressing fusion protein of plasma membrane anchor and PLAP. Description: Staining of HEK 293 cells through overexpressed membrane-bound phosphatase. The format is cell-based.
Source text: FIG. 13A to C: Staining of transfected HEK 293 cells with a voltage sensitive dye by activation of binding through an overexpressed, membrane-bound phosphatase. HEK 293 cells were cotransfected with a vector coding for GFP and a vector coding for a fusion protein of a plasma membrane anchor and phosphatase from the human placenta. A. fluorescence image showing the GFP fluoresence of a transfected cell (excitation filter 450/50 nm, emission filter 510 nm longpass; dichroic mirror: 505 nm). B. The voltage sensitive fluorescent dye Di-8-phosphato-ASPBS (cf. FIG. 11, bottom) was added to the incubation medium. […] C. […] The images shown are optimized for contrast and intensity.
(§1) FIG. 16. Genetically Targeted Staining of HEK293 cells with 1 mM Di-10P-ASPBS. A mixture of stable clones either expressing the membrane-bound phosphatase construct or cytosolic GFP were cultured on the same dish. (A) From left to right: (i) Brightfield image of cells. (ii) Fluorescence image of cells showing cells expressing cytosolic GFP (excitation filter 450/50 nm, emission filter 510 nm, dichroic mirror 505 nm). (iii) Cells expressing phosphatase as obtained by subtraction of GFP expressing cells from image i. (iv) Fluorescence image of cells with filters exc. 535/50 nm, em. 610/75 nm; dichroic mirror 535 nm. The image is normalized to the same level as in row B. (v) autoleveled image iv, showing fluorescence crosstalk of GFP. (B) Enzyme induced staining of cells as measured with filter set exc. 535/50 nm, em. 610/75 nm; dichroic mirror 535 nm. The membrane fluorescence increases over time. (C). Inverted and contrast-enhanced fluorescence images corresponding to row B. (D) Difference images. The image A/iv was subtracted from the images in row B. The resulting images were inverted and contrast was enhanced.
as §1, with “17.” for “16.”, “200 nM Di-12P-ASPBS.” for “1 mM Di-10P-ASPBS.”, “difference” for “and contrast-enhanced fluorescence images corresponding to row B. (D) Difference”, “enhanced. (D) Contrast enhanced images of row C.” for “enhanced.”
Enzyme induced staining. The dye precursors Di-10P-ASPBS and Di-12P-ASPBS were used to effect enzyme induced staining on cells. To test whether the staining is selective, a mixture of two cell populations was cultured in the same dish. One of these stably expressed the phosphatase construct, while the other was stably expressing GFP as a negative marker.

The test system of data set [5] is Madine Darby Canine Kidney (MDCK) cells. As to the kind of experiment: Enzyme induced staining of transiently transfected MDCK cells. The class given is cell-based. As for the experimental part:
FIG. 19. Genetically Targeted Staining of MDCK cells with Di-10P-ASPBS and Di-12P-ASPBS. (A) Cells were cotransfected with the membrane-bound phosphatase construct termed ArtPlasMA AP and H2B-GFP, a nucleus-localized transfection marker. Brightfield image and fluorescence images before (−1 sec) and after addition of 200 nM Di-10P-ASPBS. (B) Analogous to row A, but using 200 nM Di-12P-ASPBS. (C) Control experiment. Cells were transfected only with H2B-GFP and incubated with 200 nM Di-12P-ASPBS. Brightfield image and fluorescence images before (−1 sec) and after addition of dye (8 min). (D) Control experiment. Cells were cotransfected with the membrane-bound phosphatase construct termed ArtPlasMA AP and H2B-GFP and incubated with the dye Di-10A-ASPBS. Brightfield image and fluorescence image before (−1 sec) and after addition of dye (20 sec).
Two control experiments were performed: In the first control, cells were transfected only with the transfection marker H2B-GFP. […] In addition, no difference in staining intensity between transfected and untransfected cells can be discerned (FIG. 19C). In the second control experiment, cells were cotransfected with the phosphatase construct and the transfection marker.

The mark [6] stands for this setting: cells cotransfected with ArtPlasMA AP and H2B-GFP, 200 nM.

Consider `CCCCN(CCCC)c1ccc(C=Cc2cc[n+](CCCCS(=O)(=O)[O-])cc2)cc1` [Di-4-ASPBS, Di-4-ASP butylsulfonate, reference compound], for which the “average binding constant K to lipid membrane” value in data set [1] came out at 7500 ± 440 M⁻¹. In addition, the “increment of the binding energy Δ(ΔG) relative to the alcohol” value in data set [1] (−RT ln(K/KA)) was 0.526 kcal/mol. For the same compound, the “increase in fluorescence quantum yield” value in data set [2] is given as 36 fold.
In the case of Di-8-phosphato-ASPBS, the “permeation of the cell plasma membrane” value in data set [3] (19.6 μM, 30 minutes, cell interior stained only slightly) was “permeates the cell plasma membrane very slowly”. Also, in data set [3] (19.6 μM, after 30 minutes, no enzyme), the “membrane fluorescence before enzyme addition” value is “no membrane fluorescence could be detected”. The “membrane fluorescence after addition of soluble PLAP” value in data set [3] (PLAP 0.18 DEA Units/ml, 15 sec to 6 min) was “membrane fluorescence was activated and increased over time”. In data set [4] (transfected HEK 293 cell), the “membrane fluorescence directly after dye addition” value is “no membrane fluorescence was visible” and the “membrane staining after 5 min of incubation” value is listed as “the membrane of the transfected cell was clearly stained”. Also, in data set [4] (untransfected HEK 293 cells incubated with the dye), the “membrane fluorescence of untransfected control cells” value is on record as “did not show any membrane fluorescence”.
In the case of Di-10-phosphato-ASPBS [Di-10P-ASPBS], the “binding constant to lipid membranes” value in data set [1] was 27 M⁻¹. Besides, the “difference in binding constants between dye alcohol and dye phosphate (precursor)” value in data set [1] (pair precursor/product dye) is given as 10,000 factor. For the same compound, in data set [5] (setting [6]), the “localization of staining at beginning of experiment” value is on record as “staining is localized to the transfected cells at the beginning of the experiment” and the “localization of staining over several minutes” value is given as “the produced dye diffuses to the surrounding, nontransfected cells”. Further, the “enzyme induced membrane staining in mixed cell populations” value in data set [4] (phosphatase clones and GFP clones in same dish, 1 mM Di-10P-ASPBS, 200 nM Di-12P-ASPBS) is reported as “allowed enzyme induced membrane staining”.
For Di-10-hydroxy-ASPBS [Di-10A-ASPBS], in data set [1], the “binding constant to lipid membranes” value is on record as 250,000 M^−1. The “staining by product dye, transfected versus untransfected cells” value in data set [5] (cotransfected with phosphatase construct and H2B-GFP) was “equally and unselectively stained”.
In the case of `CCCCN(CCCC)c1ccc(/C=C/c2cc[n+](CCCO)cc2)cc1.[Br-]` [Di-4-ASPP alcohol, 1-[γ-hydroxypropyl]-trans-4-[p-(di-n-butylamino)styryl]-pyridinium bromide], in data set [1], the “average binding constant K to lipid membrane” value was 17920 ± 360 M⁻¹.

Source of the values: patent publication US7611863B2, “Selective staining of biomembranes using voltage-sensitive dyes” (Max-Planck-Gesellschaft zur Foerderung der Wissenschaften …, priority 2004, dated 2009).
